Results on four compounds are retold here after patent US11851391B2, “Antifungal compounds and methods of forming the same” (University of Kentucky Research Foundation, priority 2018, dated 2023).

≈ marks a conversion by molar mass, not a printed value. Like-named read-outs stand apart in the source and are kept apart here.

Experiment [1] deals with C. albicans ATCC MYA-2310(S) (strain E). Description: MIC determination, in vitro antifungal assay (CLSI M27-A3). Format: cell-based, Candida albicans. To be noted: MIC-0, 48 h at 35° C. The protocol:
(§1) The activity of N,N′-diaryl-bishydrazones 7-22 was tested against a panel of seven strains of C. albicans: ATCC 10231(R) (A), ATCC 64124(R) (B), ATCC MYA-2876(S) (C), ATCC 90819(R) (D), ATCC MYA-2310(S) (E), ATCC MYA-1237(R) (F), and ATCC MYA-1003(R) (G). The activity of these bishydrazones 7-22 was also explored against a panel of three non-albicans Candida strains: C. glabrata ATCC 2001 (H), C. krusei ATCC 6258 (I), and C. parapsilosis ATCC 22019 (J). Finally, the activity of these bishydrazones 7-22 was explored against three Aspergillus strains: A. flavus ATCC MYA-3631 (K), A. nidulans ATCC 38163 (L), and A. terreus ATCC MYA-3633 (M).
(§2) Candida albicans ATCC 10231 (A), C. albicans ATCC 64124 (B), and C. albicans ATCC MYA-2876 (C) were kindly provided by Dr. Jon Y. Takemoto (Utah State University, Logan, UT, USA). C. albicans ATCC 90819 (D), C. albicans ATCC MYA-2310 (E), C. albicans ATCC MYA-1237 (F), C. albicans ATCC MYA-1003 (G), Candida glabrata ATCC 2001 (H), Candida krusei ATCC 6258 (I), Candida parapsilosis ATCC 22019 (J), Aspergillus flavus ATCC MYA-3631 (K), and Aspergillus terreus ATCC MYA-3633 (M) were obtained from the American Type Culture Collection (ATCC; Manassas, VA, USA). Aspergillus nidulans ATCC 38163 (L) was received from Dr. Jon S. Thorson (University of Kentucky, Lexington, KY, USA). Filamentous fungi and yeasts were cultivated at 35° C. in RPMI 1640 medium (with 1-glutamine, without sodium biocarbonate, Sigma-Aldrich, St. Louis, MO) buffered to a pH of 7.0 with 0.165 M morpholinepropanesulfonic acid (MOPS) buffer (Sigma-Aldrich).
(§3) The MIC values of compounds 7a-24c against yeast cells (strains A-J) were determined in 96-well plates as described in the CLSI document M27-A3 with minor modifications. A single colony of freshly prepared yeast cells was used to inoculate 5 mL of yeast extract peptone dextrose (YPD) broth prior to incubation overnight with shaking at 200 rpm at 35° C. From the actively growing yeast culture, 100 μL were then transferred to 900 μL of sterile ddH2O and re-adjusted to achieve OD600 of 0.12 (˜1×10^6 CFU/mL). The cell suspension was further diluted to achieve 2-4×10^3 CFU/mL in RPMI 1640 medium. […] The final concentration of DMSO was ensured to be <1.25% in all experiments. The MIC values for compounds 7a-24c and CAS were defined as the minimum drug concentration that yielded complete inhibition (also known as MIC-0).

Experiment [2] has as its system C. albicans ATCC 64124(R) (strain B). The experiment is described as above. Format: cell-based, Candida albicans. Particulars: strain B, MIC-0, 48 h at 35° C. On the procedure: as §1, §2, §3
Experiment [3] has as its system C. albicans ATCC MYA-1237(R) (strain F). The description is as above. Format: cell-based, Candida albicans. To be noted: MIC-0, 48 h at 35° C. On the procedure:
as §1, §2, §3

In experiment [4] the test system is C. albicans ATCC 90819(R) (strain D). The experiment is described as above. Format: cell-based, Candida albicans. To be noted: Candida albicans, ATCC90819, 48 h, MIC-0, 48 h at 35° C., read-out: MIC. The protocol: as §1, §2, §3
For experiment [5], the system named is Candida albicans ATCC 10231(R) (strain A). Described as above. Format: cell-based. Particulars: MIC-0 (no visible growth), 48 h at 35° C. On the procedure: as §1, §2, §3
Experiment [6] concerns Candida parapsilosis ATCC 22019 (strain J). The description is as above. Particulars: strain J, MIC-0, 48 h at 35° C. It counts as cell-based. On the procedure: as §1, §2, §3
The subject of experiment [7] is C. albicans ATCC MYA-2876(S) (strain C). The experiment is described as above. Format: cell-based, Candida albicans. To be noted: MIC-0, 48 h at 35° C. The protocol:
as §1, §2
(§4) A single colony of freshly prepared yeast cells was used to inoculate 5 mL of yeast extract peptone dextrose (YPD) broth prior to incubation overnight with shaking at 200 rpm at 35° C. From the actively growing yeast culture, 100 μL were then transferred to 900 μL of sterile ddH2O and re-adjusted to achieve OD600 of 0.12 (˜1×10^6 CFU/mL). The cell suspension was further diluted to achieve 2-4×10^3 CFU/mL in RPMI 1640 medium. […] The final concentration of DMSO was ensured to be <1.25% in all experiments.

Experiment [8] concerns C. albicans ATCC MYA-1003(R) (strain G). The description is as above. Format: cell-based, Candida albicans. Particulars: Candida albicans, 48 h, MIC-0, 48 h at 35° C., read-out: MIC. The protocol: as §1, §2, §4
Experiment [9] relates to Aspergillus flavus ATCC MYA-3631 (strain K). Description: MIC determination against filamentous fungi (CLSI M38-A2). It counts as cell-based. To be noted: Aspergillus flavus, 48 h, MIC-0, 48 h at 35° C., read-out: MIC. On the procedure:
as §1, §2
(§5) Similarly, the MIC values of compounds 7a-24c, as well as that of the two control drugs against filamentous fungi (strains K-M) were determined as previously described in CLSI document M38-A2. Spores were harvested from sporulating cultures growing on potato dextrose agar (PDA) by filtration through sterile glass wool and enumerated by using a hemocytometer to obtain the desired inoculum size. […] Spore suspensions were added to the wells to afford a final concentration of 5×10^5 CFU/mL. The plates were incubated at 35° C. for 48 h. The MIC values of compounds 7a-24c and CAS against filamentous fungi were based on the complete inhibition of growth when compared to the growth control (MIC-0). […] Each test was performed in triplicate.

The test system of experiment [10] is Aspergillus terreus ATCC MYA-3633 (strain M). Described as above. Format: cell-based. Particulars: Aspergillus terreus, 48 h, MIC-0, 48 h at 35° C., read-out: MIC. On the procedure:
as §1, §2, §5

Experiment [11] concerns Aspergillus nidulans ATCC 38163 (strain L). The experiment is described as above. Particulars: Aspergillus nidulans, ATCC38163, 48 h, MIC-0, 48 h at 35° C., read-out: MIC. It counts as cell-based. The protocol: as §1, §2, §5
In experiment [12] the test system is Candida glabrata ATCC 2001 (strain H). The experiment in a line: MIC determination, in vitro antifungal assay (CLSI M27-A3). Format: cell-based. Particulars: MIC-0, 48 h at 35° C. The protocol: as §1, §2, §4
The subject of experiment [13] is Candida krusei ATCC 6258 (strain I). The description is as above. Format: cell-based. To be noted: MIC-0, 48 h at 35° C. The protocol:
as §1, §2, §4

Setting [14] is: Candida albicans, 48 h, read-out: MIC.
The mark [15] stands for this setting: Candida albicans, ATCC64124, 48 h, read-out: MIC.
[16] abbreviates: Candida albicans, ATCC10231, 48 h, read-out: MIC.
Setting [17] is: Lodderomyces parapsilosis, ATCC22019, 48 h, read-out: MIC.
Where [18] appears, read: Nakaseomyces glabratus, ATCC2001, 48 h, read-out: MIC.
Where [19] appears, read: Pichia kudriavzevii, ATCC6258, 48 h, read-out: MIC.

For `Fc1ccccc1N/N=C/c1ccc(-c2cccc(/C=N/Nc3ccccc3F)c2)cc1` [Compound 10a], the MIC in experiment [1] (setting [14]) is 31.3 µg/mL (≈ 73.4 µM); in [2] (setting [15]) it was 7.8 µg/mL (≈ 18.3 µM); in experiment [3] (setting [14]), greater than 31.3 µg/mL; in experiment [4], 15.6 µg/mL (≈ 36.6 µM); in [5] (setting [16]) it was 7.8 µg/mL (≈ 18.3 µM); in [6] (setting [17]), 15.6 µg/mL (≈ 36.6 µM). Also, the MIC in experiment [7] (setting [14]) is greater than 31.3 µg/mL; in experiment [8], 7.8 µg/mL (≈ 18.3 µM); in [9], 3.9 µg/mL (≈ 9.14 µM); in experiment [10], greater than 31.3 µg/mL; in [11] it was 7.8 µg/mL (≈ 18.3 µM); in experiment [12] (setting [18]) it was greater than 31.3 µg/mL. Also, the minimum inhibitory concentration (MIC) in experiment [13] (setting [19]) was found to be 1.95 µg/mL (≈ 4.57 µM).

On to `Brc1ccc(N/N=C/c2ccc(-c3cccc(/C=N/Nc4ccc(Br)cc4)c3)cc2)cc1` [Compound 19a], for which the MIC in experiment [1] (setting [14]) is greater than 31.3 µg/mL; in [2] (setting [15]) it was 31.3 µg/mL (≈ 57.1 µM); in experiment [3] (setting [14]) it was 7.8 µg/mL (≈ 14.2 µM); in experiment [3], 7.8 µg/mL (≈ 14.2 µM); in [4] it was greater than 31.3 µg/mL; in [5] (setting [16]), 31.3 µg/mL (≈ 57.1 µM). The MIC in [6] (setting [17]) was greater than 31.3 µg/mL; in [7] (setting [14]), 31.3 µg/mL (≈ 57.1 µM); in experiment [8], 31.3 µg/mL (≈ 57.1 µM); in experiment [9], 31.3 µg/mL (≈ 57.1 µM); in [10] it was greater than 31.3 µg/mL; in experiment [11] it was greater than 31.3 µg/mL. For the same compound, the minimum inhibitory concentration (MIC) in experiment [12] was 7.8 µg/mL (≈ 14.2 µM); in [12] (setting [18]), 7.8 µg/mL (≈ 14.2 µM); in [13] (setting [19]), greater than 31.3 µg/mL.

Regarding `C/C(=N\NC(=N)N)c1ccc(-c2ccc(/C(C)=N/NC(=N)N)cc2)cc1` [Compound 24c], the MIC in experiment [1] (setting [14]) is 15.6 µg/mL (≈ 44.5 µM); in experiment [2] (setting [15]), 3.9 µg/mL (≈ 11.1 µM); in experiment [3] (setting [14]) it was 15.6 µg/mL (≈ 44.5 µM); in [4], 3.9 µg/mL (≈ 11.1 µM); in experiment [5] (setting [16]) it was 3.9 µg/mL (≈ 11.1 µM); in [6] (setting [17]), 1.95 µg/mL (≈ 5.56 µM). The MIC is 15.6 µg/mL (≈ 44.5 µM) in experiment [7] (setting [14]); 15.6 µg/mL (≈ 44.5 µM) in [8]; greater than 31.3 µg/mL in experiment [9]; greater than 31.3 µg/mL in experiment [10]; 15.6 µg/mL (≈ 44.5 µM) in [11]; 7.8 µg/mL (≈ 22.3 µM) in experiment [12] (setting [18]). Moreover, the MIC in [13] (setting [19]) was 3.9 µg/mL (≈ 11.1 µM).

`COc1cccc(N/N=C(\C)c2ccc(-c3ccc(/C(C)=N/Nc4cccc(OC)c4)cc3)cc2)c1` [Compound 11c]: the MIC was 15.6 µg/mL (≈ 32.6 µM) in experiment [1] (setting [14]); 15.6 µg/mL (≈ 32.6 µM) in [1]; 0.98 to 3.9 µg/mL (≈ 2.05 to 8.15 µM) in experiment [2] (setting [15]); 0.98 µg/mL (≈ 2.05 µM) in experiment [2]; 31.3 µg/mL (≈ 65.4 µM) in experiment [3] (setting [14]); 31.3 µg/mL (≈ 65.4 µM) in experiment [4]. Moreover, the MIC was 0.98 to 3.9 µg/mL (≈ 2.05 to 8.15 µM) in experiment [5] (setting [16]); 0.98 µg/mL (≈ 2.05 µM) in [5]; 15.6 µg/mL (≈ 32.6 µM) in [6] (setting [17]); 15.6 µg/mL (≈ 32.6 µM) in experiment [6]; 15.6 µg/mL (≈ 32.6 µM) in experiment [7] (setting [14]); 15.6 µg/mL (≈ 32.6 µM) in experiment [7]. Also, the MIC in [9] was greater than 31.3 µg/mL; in experiment [10], greater than 31.3 µg/mL; in experiment [11], greater than 31.3 µg/mL; in [12], 15.6 µg/mL (≈ 32.6 µM); in experiment [12] (setting [18]), 15.6 µg/mL (≈ 32.6 µM); in experiment [13], 0.98 µg/mL (≈ 2.05 µM). Besides, the minimum inhibitory concentration (MIC) in experiment [13] (setting [19]) fell in the range of 0.98 to 3.9 µg/mL (≈ 2.05 to 8.15 µM).

The MIC is the lowest concentration found to suppress growth.
